Where two headings read alike, the source gives them in different places.
Columns and labels:
[1] = tested on: Magnaporthe oryzae; assay type: in vivo; conditions: 1-day protective; for B % DC: component B alone; for A % DC: component A (777) alone
[2] = tested on: Magnaporthe oryzae; assay type: in vivo; conditions: 1-day curative/protective; for B % DC: component B alone; for A % DC: component A (777) alone

## CO/C=C(/C(=O)OC)c1ccccc1Oc1cc(Oc2ccccc2C#N)ncn1 [Azoxystrobin, methyl (αE)-2-[[6-(2-cyanophenoxy)-4-pyrimidinyl]oxy]-α-(methoxymethylene)benzeneacetate]
[1]; Rate B 0.025 ai ppm
  B % DC: 9%
[1]; Rate B 0.1 ai ppm
  B % DC: 19%
[1]; Rate B 0.4 ai ppm
  B % DC: 30%
[1]; Rate B 1.56 ai ppm
  B % DC: 0%

## O=C(Nc1ccccc1-c1ccc(Cl)cc1)c1cccnc1Cl [Boscalid, 2-chloro-N-(4′-chloro[1,1′-biphenyl]-2-yl)-3-pyridinecarboxamide]
[2]; Rate B 400 ai/ppm
  B % DC: 69%

## CCC1(C(=O)NC(C)c2ccc(Cl)cc2)C(C)C1(Cl)Cl (stereo not drawn) [Carpropamid, 2,2-dichloro-N-[1-(4-chlorophenyl)ethyl]-1-ethyl-3-methylcyclopropanecarboxamide]
[1]; Rate B 0.1 ai ppm
  B % DC: 2%
[1]; Rate B 0.4 ai ppm
  B % DC: 23%

## C[C@H]1O[C@H](O[C@H]2[C@H](O)[C@@H](O)[C@@H](O)[C@H](O)[C@@H]2O)[C@@H](N)C[C@@H]1NC(=N)C(=O)O [Kasugamycin, 3-O-[2-amino-4-[(carboxylminomethyl)amino]-2,3,4,6-tetradeoxy-α-D-arabino-hexopyranosyl]-D-chiro-inositol]
[2]; Rate B 1.56 ai/ppm
  B % DC: 69%
[2]; Rate B 6.25 ai/ppm
  B % DC: 68%
[2]; Rate B 25 ai/ppm
  B % DC: 74%

## C=CCOC1=NS(=O)(=O)c2ccccc21 [Probenazole, 3-(2-propenyloxy)-1,2-benzisothiazole 1,1-dioxide]
[2]; Rate B 3.12 ai/ppm
  B % DC: 69%
[2]; Rate B 12.5 ai/ppm
  B % DC: 78%

## Cc1cccc2sc3nncn3c12 [Tricyclazole, 5-methyl-1,2,4-triazolo[3,4-b]benzothiazole]
[2]; Rate B 0.1 ai/ppm
  B % DC: 71%
[1]; Rate B 0.025 ai ppm
  B % DC: 0%
[1]; Rate B 0.1 ai ppm
  B % DC: 0%
[1]; Rate B 0.4 ai ppm
  B % DC: 23%

## COc1ccnc(C(=O)N[C@H]2COC(=O)[C@H](Cc3ccccc3)[C@@H](OC(=O)C(C)C)[C@H](C)OC2=O)c1OCOC(=O)C(C)C [compound 777]
[2]; Rate A 0.1 ai/ppm
  A % DC: 28%
[2]; Rate A 0.4 ai/ppm
  A % DC: 50%
[2]; Rate A 1.56 ai/ppm
  A % DC: 67%
[2]; Rate A 6.25 ai/ppm
  A % DC: 81%
[1]; Rate A 0.025 ai ppm
  A % DC: 0%
[1]; Rate A 0.1 ai ppm
  A % DC: 21%
[1]; Rate A 0.25 ai ppm
  A % DC: 0%
[1]; Rate A 0.4 ai ppm
  A % DC: 61%
